Measurements taken from patent US11292803B2, “Bioreducible N-oxide-based probes for imaging of hypoxia” (THE BOARD OF TRUSTEES OF THE UNIVERSITY OF ILLINOIS, priority 2018, dated 2022).

Columns and labels:
4T1 tumour allografts [1] = assay: In vivo PA imaging of hypoxic tumour model; design: species or system BALB/c mice; conditions: tail vein injection 0.3 mg/kg; 770 nm
Method: Next, attention was turned to the application of HyP-1 for hypoxia detection using PA imaging. HyP-1 (50 μL, 0.3 mg/kg) was administered to tumour-bearing mice intravenously via tail vein injection, and PA images of both the tumour-bearing and control flanks were acquired at 1, 3 and 5 hours following injection. […] The 3D-reconstructions of the PA images enabled visualization of specific areas within the tumour where signal was highest, a significant improvement compared to the minimally resolved signal obtained using fluorescence imaging (FIG. 6b). It was hypothesized that these areas of high intensity correlate with the highest concentrations of red-HyP-1, and therefore with regions of most severe hypoxia.
All in vivo imaging experiments were performed with the approval of the Institutional Animal Care and Use Committee of the University of Illinois at Urbana-Champaign, following the principles outlined by the American Physiological Society on research animal use. […]
Prior to imaging, hair was removed from the lower body half by shaving and treating with a topical hair removal cream. […] Data was analysed using OsiriX software. […] ROIs of equal area were drawn to include all visible signal in the image, and mean PA signal in each ROI was recorded. Change in PA signal was calculated by subtracting signal from images taken prior to injection from those at given time points.

ischemic hindlimb tissue = assay: In vivo fluorescence imaging of hindlimb ischemia model; design: species or system BALB/c mice; conditions: intramuscular 50 μL, 50 μM; over 1 hour
Method: To visualize the response of HyP-1 in a model of rapidly developing hypoxia, a murine hindlimb ischemia model of peripheral artery disease was employed. Ischemia was induced in the right hindlimb of BALB/c mice via ligation of the femoral artery. […] After a 1-hour recovery period, HyP-1 (50 μL, 50 μM) was administered via intramuscular injection into both hindlimbs of the mouse. To visualize the time-dependent response of HyP-1 in the ischemic and non-ischemic tissue, ratiometric fluorescence imaging was performed over the course of 1 hour immediately following injection. […]
All in vivo imaging experiments were performed with the approval of the Institutional Animal Care and Use Committee of the University of Illinois at Urbana-Champaign, following the principles outlined by the American Physiological Society on research animal use. […] Animals that underwent unsuccessful surgery as determined by laser Doppler perfusion imaging were excluded from analysis.
(§1) Images were obtained using epi-fluorescence with excitation filters of 675 and 745 and corresponding emission filters of 720 and 800, respectively. […] ROIs of equal area were drawn around signals, and the total radiant efficiency in each ROI was determined. Ratiometric signal was calculated by determining the ratio of radiant efficiency corresponding to 800 nm and 720 nm emissions.

4T1 cells = assay: Ratiometric fluorescence of cells, IVIS Spectrum; assay type: cell-based, murine; conditions: 4T1 cells, 5 μM HyP-1, 4 hours, IVIS Spectrum
Method: Ratiometric fluorescence imaging was also performed on 4T1 cells cultured in 6-well plates using an IVIS Spectrum imaging system. Cells were stained with a 5 μM solution of HyP-1 and incubated in either normoxic or hypoxic conditions for 4 hours (FIG. 5c). […] To further verify the in vitro results and determine the cellular factors responsible for HyP-1 reduction, cells were also stained with HyP-1 solutions containing either BIPY or DPI at multiple concentrations and incubated under hypoxic conditions.
Authenticated 4T1 cells were purchased from ATCC. Cells were grown in RPMI 1640 medium supplemented with 10% fetal bovine serum. Cells were cultured at 37° C. in 5% CO2 and 20% 02 for normoxic conditions. Hypoxic cell culture was performed by incubating cells in a sealed container with a Mitsubishi AnaeroPack™ anaerobic gas generator. Hypoxic conditions were verified with the use of a Mitsubishi RT Anaero-Indicator.
For cellular imaging using the IVIS Spectrum imaging system, cells were plated in a 6-well plate at an initial density of 1.7×10^4 cells/mL and allowed to grow until 60-80% confluent (approximately 3 days). Media was removed and cells were washed with PBS. A […] solution of HyP-1 in serum-free medium was added, and cells were incubated under normoxic or hypoxic conditions for 4 hours. For BIPY and DPI experiments, the staining solution was supplemented with the compound at the appropriate concentration, and ratiometric turn-on was reported relative to a vehicle control. Images were obtained using excitation and emission filter sets of 675/720 nm and 745/800 nm. Regions of interest (ROIs) were drawn around cell-containing wells, and ratiometric signal was calculated by determining the ratio of radiant efficiency corresponding to 800 nm and 720 nm emissions.

4T1 tumour allografts [2] = assay: In vivo fluorescence imaging of hypoxic tumour model; design: species or system BALB/c mice; conditions: intratumoural injection 50 μL, 100 μM; after 1 hour
Method: Tumour allografts were generated via subcutaneous implantation of 4T1 cells into the right flanks of BALB/c mice. The tumours were allowed to grow to volumes of 300-400 mm^3 prior to imaging. As an initial study to visualize the intratumoural conversion of HyP-1 to red-HyP-1 in real time, ratiometric fluorescence imaging was performed immediately following administration of HyP-1 (50 μL, 100 μM) via intratumoural or subcutaneous (control) injection.
All in vivo imaging experiments were performed with the approval of the Institutional Animal Care and Use Committee of the University of Illinois at Urbana-Champaign, following the principles outlined by the American Physiological Society on research animal use. Female mice (5-6 weeks old) were acquired from The Jackson Laboratory. A suspension of 0.5×10^6 cells in serum-free medium containing 50% v/v matrigel (100 μL) was subcutaneously injected into the right flank of each mouse. Tumours with volumes of 300-400 mm^3 formed after 12-15 days. […]
as §1

CC[N+]([O-])(CC)c1ccc(-c2cc(-c3ccccc3)c3n2[B-](F)(F)[N+]2=C(c4ccc(OC)cc4)C=C(c4ccccc4)C2=N3)cc1 [HyP-1, 4-(5,5-difluoro-7-(4-methoxyphenyl)-1,9-diphenyl-5H-5λ^4,6λ^4-dipyrrolo[1,2-c:2′,1′-f][1,3,5,2]triazaborinin-3-yl)-N,N-diethylaniline oxide]
PA signal increase in control flank (4T1 tumour allografts [1]): no increase
mean PA signal increase in tumour tissue (4T1 tumour allografts [1]): 20.5 a.u.
ratiometric signal, ischemic tissue versus control (ischemic hindlimb tissue): 3 fold
ratiometric response, hypoxic versus normoxic wells (4T1 cells): 2.5 fold
ratiometric fluorescent turn-on, tumour tissue versus subcutaneous control (4T1 tumour allografts [2]): 5.6 fold
